Holding throughout (format): biochemical
For test [1], the target named is Abl (h) (Homo sapiens, UniProt P00519). Description: Abl human kinase assay (glass-fiber filter). The note with it: test concentration of 10^−6M; for inhibition at 1 µM: read-out: C1 score (inhibition of Abl human).
In test [2] the target is CSK (h) (Homo sapiens, UniProt P41240). Description: CSK human kinase assay (glass-fiber filter). The note with it: test concentration of 10^−6M; for inhibition at 1 µM: read-out: C2 score (inhibition of CSK human). The method, boiled down:
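Radiometric filter-binding assay: human CSK (5-10 mU) with 0.1 mg/ml poly(Glu, Tyr) 4:1 and [γ-33P]-ATP (concentration as required) in 50 mM Tris pH 7.5, 10 mM MnCl2, 10 mM MgAcetate. Incubated 40 minutes at room temperature, stopped with phosphoric acid; substrate-bound 33P counted.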

Test [3] addresses EGFR (h) (Homo sapiens, UniProt P00533). Briefly: EGFR human kinase assay (glass-fiber filter). The note with it: test concentration of 10^−6M; for inhibition at 1 µM: read-out: C4 score (inhibition of EGFR human). The method, boiled down:
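Human EGFR (5-10 mU) phosphorylated 0.1 mg/ml poly(Glu, Tyr) 4:1 in 8 mM MOPS pH 7.0, 0.2 mM EDTA, 10 mM MnCl2, 10 mM MgAcetate with [γ-33P]ATP at unspecified concentration. Incubation lasted 40 minutes at room temperature, was stopped with phosphoric acid, and filter-bound 33P was counted by scintillation.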

In test [4] the target is Fms (h) (Homo sapiens, UniProt P07333). Briefly: Fms human kinase assay (glass-fiber filter). The note with it: test concentration of 10^−6M; for inhibition at 1 µM: read-out: C7 score (inhibition of Fms human). The method, boiled down: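 Radiometric filter-binding assay: Fms (5-10 mU) with 250 μM peptide substrate and [γ-33P]ATP in 8 mM MOPS pH 7.0, 10 mM Mg acetate, 40 min at room temperature. Reaction stopped with phosphoric acid; substrate-bound 33P counted on P30 filtermat.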

A value given as a limit tells only on which side of the number the result lay.

The results in this text go back to patent US8148388B2, “2,4 (4,6) pyrimidine derivatives” (Janssen Pharmaceutica, N.V., priority 2004, dated 2012).

Fms (h), sequence (P07333 20-972): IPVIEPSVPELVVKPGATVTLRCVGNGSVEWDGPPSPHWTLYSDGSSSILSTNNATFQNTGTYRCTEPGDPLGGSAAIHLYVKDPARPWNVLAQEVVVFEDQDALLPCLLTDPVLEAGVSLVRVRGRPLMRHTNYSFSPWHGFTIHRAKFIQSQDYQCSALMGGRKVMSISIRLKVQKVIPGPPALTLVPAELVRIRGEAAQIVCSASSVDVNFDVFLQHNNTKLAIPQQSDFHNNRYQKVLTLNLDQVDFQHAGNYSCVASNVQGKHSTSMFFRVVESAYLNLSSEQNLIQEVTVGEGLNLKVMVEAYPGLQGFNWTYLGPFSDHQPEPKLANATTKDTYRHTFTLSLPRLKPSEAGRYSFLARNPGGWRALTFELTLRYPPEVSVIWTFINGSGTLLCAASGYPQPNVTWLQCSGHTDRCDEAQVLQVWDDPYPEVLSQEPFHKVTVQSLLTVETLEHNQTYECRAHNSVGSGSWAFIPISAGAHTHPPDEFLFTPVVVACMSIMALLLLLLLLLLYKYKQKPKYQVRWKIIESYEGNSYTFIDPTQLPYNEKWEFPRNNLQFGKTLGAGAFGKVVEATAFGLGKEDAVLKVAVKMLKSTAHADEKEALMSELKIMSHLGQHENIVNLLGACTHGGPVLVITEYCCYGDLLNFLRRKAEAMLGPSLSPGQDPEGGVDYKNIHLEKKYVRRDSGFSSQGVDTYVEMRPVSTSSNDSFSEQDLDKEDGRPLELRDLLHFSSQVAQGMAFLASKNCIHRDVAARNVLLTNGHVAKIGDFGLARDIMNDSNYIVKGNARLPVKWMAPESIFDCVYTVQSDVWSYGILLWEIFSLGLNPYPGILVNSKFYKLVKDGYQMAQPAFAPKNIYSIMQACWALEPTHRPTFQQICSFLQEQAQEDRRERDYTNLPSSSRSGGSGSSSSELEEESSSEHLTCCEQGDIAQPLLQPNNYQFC
Abl (h), sequence (P00519 whole entry): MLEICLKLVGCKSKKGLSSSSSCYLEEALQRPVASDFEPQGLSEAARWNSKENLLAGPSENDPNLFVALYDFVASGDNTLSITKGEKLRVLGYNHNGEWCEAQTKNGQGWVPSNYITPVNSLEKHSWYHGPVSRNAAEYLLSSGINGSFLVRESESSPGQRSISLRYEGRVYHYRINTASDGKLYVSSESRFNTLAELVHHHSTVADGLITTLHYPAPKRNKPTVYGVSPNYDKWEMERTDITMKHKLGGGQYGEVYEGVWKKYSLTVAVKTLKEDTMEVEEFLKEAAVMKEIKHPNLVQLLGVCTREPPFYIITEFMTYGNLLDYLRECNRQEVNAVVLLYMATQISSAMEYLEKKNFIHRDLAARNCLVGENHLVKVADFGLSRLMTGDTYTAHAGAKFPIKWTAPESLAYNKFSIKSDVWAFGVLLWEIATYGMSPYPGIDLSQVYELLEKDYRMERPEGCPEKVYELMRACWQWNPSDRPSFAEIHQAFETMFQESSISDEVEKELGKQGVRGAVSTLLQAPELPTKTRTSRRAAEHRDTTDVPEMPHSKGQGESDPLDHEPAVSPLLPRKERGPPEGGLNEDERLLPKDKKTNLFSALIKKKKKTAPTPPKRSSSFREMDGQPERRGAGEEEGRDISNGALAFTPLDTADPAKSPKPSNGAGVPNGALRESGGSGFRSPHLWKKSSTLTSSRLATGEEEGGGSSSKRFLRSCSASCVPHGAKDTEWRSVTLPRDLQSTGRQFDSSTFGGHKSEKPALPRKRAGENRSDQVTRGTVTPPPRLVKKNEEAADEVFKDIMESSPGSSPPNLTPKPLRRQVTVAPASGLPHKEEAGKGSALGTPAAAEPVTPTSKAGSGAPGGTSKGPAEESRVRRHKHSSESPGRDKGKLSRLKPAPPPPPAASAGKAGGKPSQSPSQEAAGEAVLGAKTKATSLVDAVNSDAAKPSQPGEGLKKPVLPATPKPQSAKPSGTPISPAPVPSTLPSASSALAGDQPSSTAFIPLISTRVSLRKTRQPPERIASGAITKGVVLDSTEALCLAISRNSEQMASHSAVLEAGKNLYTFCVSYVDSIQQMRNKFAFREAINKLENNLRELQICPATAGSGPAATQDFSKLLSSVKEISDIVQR
CSK (h), sequence (P41240 whole entry): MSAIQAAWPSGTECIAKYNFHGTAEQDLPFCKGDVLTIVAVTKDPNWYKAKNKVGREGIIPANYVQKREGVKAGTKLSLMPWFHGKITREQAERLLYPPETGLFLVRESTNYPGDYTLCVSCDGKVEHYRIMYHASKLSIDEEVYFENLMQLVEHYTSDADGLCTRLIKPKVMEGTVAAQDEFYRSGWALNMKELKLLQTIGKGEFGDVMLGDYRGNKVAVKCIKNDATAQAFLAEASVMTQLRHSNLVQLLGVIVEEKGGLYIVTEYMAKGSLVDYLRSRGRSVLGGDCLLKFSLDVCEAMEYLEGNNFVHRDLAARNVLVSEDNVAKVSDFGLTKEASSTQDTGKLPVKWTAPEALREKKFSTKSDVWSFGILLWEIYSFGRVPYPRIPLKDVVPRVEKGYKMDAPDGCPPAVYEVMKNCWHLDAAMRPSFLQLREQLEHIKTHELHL

By inhibition is commonly meant how much of the control response was suppressed. Consider `N#Cc1cnc2nc1Nc1cccc(c1)OCC(=O)NCCCOc1cccc(c1)N2` [Compound 25, 14,21-dioxa-2,4,8,17,28-pentaazatetracyclo[20.3.1.1~3,7~.1~9,13~]octacosa-1(26),3,5,7(28),9,11,13(27),22,24-nonaene-6-carbonitrile, 16-oxo-], for which the inhibition at 1 µM in test [1] fell in the range of 10 to 30%; in test [2], 30 to 60%; in test [3], 10 to 30%; in test [4] it was 30 to 60%.
On to `COc1ccc2cc1OCCCNC(=O)C(C)(C)NC(=O)Cc1ccc(Cl)cc1Nc1cc(ncn1)N2` [Compound 105, 6,2:8,12-dimetheno-7H-13,1,3,5,7,17,20-benzoxahexaazacyclotetracosine-18,21-dione, 25-chloro-1,14,15,16,17,19,20,22-octahydro-11-methoxy-19,19-dimethyl-], for which the inhibition at 1 µM in test [1] was over 80%; in test [2], 30 to 60%; in test [3] it was over 80%; in test [4], 10 to 30%.
As for `N#Cc1cnc2nc1Nc1cccc(c1)OCC(=O)NCCCCOc1cccc(c1)N2` [Compound 26, 14,22-dioxa-2,4,8,17,29-pentaazatetracyclo[21.3.1.1~3,7~.1~9,13~]nonacosa-1(27),3,5,7(29),9,11,13(28),23,25-nonaene-6-carbonitrile, 16-oxo-], the inhibition at 1 µM in test [1] lay within 10 to 30%; in test [2], 10 to 30%; in test [3], 10 to 30%; in test [4] it was 30 to 60%.
For `CC1(C)NC(=O)Cc2ccc(Cl)cc2Nc2cc(ncn2)Nc2ccc(OCCCN3CCOCC3)c(c2)OCCNC1=O` [Compound 106, 1H,7H-6,2:8,12-dimetheno-13,1,3,5,7,16,19-benzoxahexaazacyclotricosine-17,20(14H)-dione, 24-chloro-15,16,18,19,21-pentahydro-18,18-dimethyl-11-[3-(4-morpholinyl)propoxy]-], the inhibition at 1 µM in test [1] is over 80%; in test [2], 60 to 80%; in test [3] it was over 80%; in test [4], 10 to 30%.
Take `COc1ccc2cc1OCCCCCCOc1ccc(Br)cc1Nc1cc(ncn1)N2` [Compound 36, 1H,7H-2,6: 12,8-dimetheno-13,20,1,3,5,7-benzodioxatetraazacyclodocosine, 23-bromo-14,15,16,17,18,19-hexahydro-11-methoxy-]: in test [1], the “C1 score (inhibition of Abl human)” value is listed as 2 (Score 2=30-60% inhibition). Moreover, in test [2], the “C2 score (inhibition of CSK human)” value is recorded as 1 (Score 1=10-30% inhibition). The “C4 score (inhibition of EGFR human)” value in test [3] is listed as 4 (Score 4=>80% inhibition). Further, the “C7 score (inhibition of Fms human)” value in test [4] was 1 (Score 1=10-30% inhibition).
On to `COc1ccc2cc1OCCNC(=O)CNC(=O)Cc1ccc(Cl)cc1Nc1cc(ncn1)N2` [Compound 103, 1H,7H-6,2:12,8-dimetheno-13,1,3,5,7,16,19-benzoxahexaazacyclotricosine-17,20(14H)-dione, 24-chloro-15,16,18,19,21-pentahydro-11-methoxy-], for which the inhibition at 1 µM is over 80% in test [1], 30 to 60% in test [2] and over 80% in test [3].
For the molecule `COc1ccc2c(c1)OCCCCCCOc1ccc(Cl)cc1Nc1cc(ncn1)N2` [Compound 34, 11H-6,10-metheno-5H-dibenzo[b,k][1,13,4,6,8,10]dioxatetraazacyclononadecine, 13-chloro-17,18,19,20,21,22-hexahydro-2-methoxy-], the results for the inhibition at 1 µM in test [2], in test [3] and in test [4] were 10 to 30%, 30 to 60% and 10 to 30%, respectively.
Consider `COc1ccc2cc1OCCCCCCCOc1ccc(Br)cc1Nc1cc(ncn1)N2` [Compound 37, 1H,7H-2,6: 12,8-dimetheno-14H-13,21,1,3,5,7-benzodioxatetraazacyclotricosine, 24-bromo-15,16,17,18,19,20-hexahydro-11-methoxy-], for which, in test [1], the “C1 score (inhibition of Abl human)” value is listed as 2 (Score 2=30-60% inhibition). Further, in test [2], the “C2 score (inhibition of CSK human)” value is 1 (Score 1=10-30% inhibition). In addition, the “C4 score (inhibition of EGFR human)” value in test [3] is recorded as 3 (Score 3=60-80% inhibition). Besides, the “C7 score (inhibition of Fms human)” value in test [4] is reported as 1 (Score 1=10-30% inhibition).
As for `N#Cc1cnc2nc1Nc1cccc(c1)OCCCNC(=O)COc1cccc(c1)N2` [Compound 28, 14,21-dioxa-2,4,8,18,28-pentaazatetracyclo[20.3.1.1~3,7~.1~9,13~]octacosa-1(26),3,5,7(28),9,11,13(27),22,24-nonaene-6-carbonitrile, 19-oxo-], the inhibition at 1 µM in test [1] was in the range of 10 to 30%; in test [2], 10 to 30%; in test [4] it was 30 to 60%.
Turning to “12,8-metheno-6,2-nitrilo-7H-13,1,5,7,16,19-benzoxapentaazacyclodocosine-3-carbonitrile, 23-chloro-1,14,15,16,17,18,19,20-octahydro-11-methoxy-19-methyl-17-oxo- [Compound 32]”, the “C1 score (inhibition of Abl human)” value in test [1] is recorded as 3 (Score 3=60-80% inhibition). In test [2], the “C2 score (inhibition of CSK human)” value is listed as 1 (Score 1=10-30% inhibition). In addition, in test [3], the “C4 score (inhibition of EGFR human)” value was 4 (Score 4=>80% inhibition). Also, in test [4], the “C7 score (inhibition of Fms human)” value was 1 (Score 1=10-30% inhibition).
As for “1H,7H-2,6: 12,8-dimetheno-14H-13,19,1,3,5,7-benzodioxatetraazacycloheneicosine, 22-bromo-15,16,17,18-tetrahydro-11-methoxy- [Compound 35]”, in test [1], the “C1 score (inhibition of Abl human)” value was 4 (Score 4=>80% inhibition). Moreover, in test [2], the “C2 score (inhibition of CSK human)” value is reported as 1 (Score 1=10-30% inhibition). The “C4 score (inhibition of EGFR human)” value in test [3] was 2 (Score 2=30-60% inhibition). Further, the “C7 score (inhibition of Fms human)” value in test [4] is 2 (Score 2=30-60% inhibition).
